In patent US20260226073A1 (AURIGENE ONCOLOGY LIMITED, priority 2023, published 2026) one finds EC50 and IC50 data, which are given here for 25 compounds.

The test system of test [1] is NFAT signaling pathway in Jurkat NFAT reporter cells. Description: Jurkat NFAT reporter assay. It counts as cell-based. Conditions: Homo sapiens, 30 min with compound, then soluble anti-human CD3/CD28 antibody for 6 hours, luciferase readout, read-out: EC50 (Group). Summed up:
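Results are expressed as fold change relative to stimulated, inhibitor-free cells. Stimulation was 6 h with soluble anti-human CD3/CD28 antibody after a 30-min exposure of 1×10^5 NFAT-RE luciferase Jurkat reporter cells per well to the Cbl-b inhibitor; signal read by Bio-Glo bioluminescence.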
On the technique in general: In a reporter assay the amount or activity of a reporter protein is the signal.

Test [2] addresses T1, human recombinant CBL-b (human Biotin CBL-b recombinant protein a.a. 39-426) (Homo sapiens, UniProt Q13191).
T1 construct: human Biotin CBL-b recombinant protein a.a; 39-426; Biotin (biotinylated); made in house
Briefly: Biochemical assay for CBL-b inhibition (ligand displacement TR-FRET). In kind it is binding. The conditions noted are these: 50 nM CBL-b, 0.3 μM Bodipy FL-Probe, read-out: IC50 (CBL-b inhibition, group). An outline of the steps:
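Ligand-displacement TR-FRET: 0.3 μM Bodipy FL probe competes with compound for 50 nM biotin-CBL-b (aa 39-426) after a 60 min RT compound pre-incubation; terbium-streptavidin detection, 60 min each step. Dose-response sigmoidal fitting gave IC50 and % maximum inhibition.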
(In TR-FRET formats the signal depends on donor and acceptor labels being close together.)

T1 sequence (Q13191 39-426): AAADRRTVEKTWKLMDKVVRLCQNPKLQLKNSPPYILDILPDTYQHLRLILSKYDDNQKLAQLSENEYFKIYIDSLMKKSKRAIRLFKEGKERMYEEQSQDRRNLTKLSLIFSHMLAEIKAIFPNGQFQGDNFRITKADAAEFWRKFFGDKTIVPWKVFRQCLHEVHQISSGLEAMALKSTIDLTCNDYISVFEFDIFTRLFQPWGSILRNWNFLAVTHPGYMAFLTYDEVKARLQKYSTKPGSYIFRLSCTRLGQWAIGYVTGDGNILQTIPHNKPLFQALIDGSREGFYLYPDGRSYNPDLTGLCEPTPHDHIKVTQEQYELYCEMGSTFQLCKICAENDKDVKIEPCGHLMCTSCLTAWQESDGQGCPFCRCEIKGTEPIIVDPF

On to `CCn1cnnc1-c1cc(F)ccc1-c1ccc2c(c1)C(=O)N(c1cc(CNCC3CC3)cc(C)n1)C2` [Compound 294, 2-(4-(((Cyclopropylmethyl)amino)methyl)-6-methylpyridin-2-yl)-6-(2-(4-ethyl-4H-1,2,4-triazol-3-yl)-4-fluorophenyl)isoindolin-1-one], for which the EC50 in test [1] was in the range of 1000 to 10000 nM. Besides, the IC50 in test [2] was less than 80 nM.
On the same counts, the results for `CCCNCc1cc(C)nc(N2Cc3ccc(-c4ccc(F)cc4-c4nncn4C)cc3C2=O)c1` [Compound 323, 6-(4-Fluoro-2-(4-methyl-4H-1,2,4-triazol-3-yl)phenyl)-2-(6-methyl-4-((propyl-amino)methyl)pyridin-2-yl)isoindolin-1-one] are less than 300 nM and less than 80 nM.
On the same counts, the results for `CC(C)c1cc(CN2CCC[C@H](C)C2)cc(N2Cc3ccc(C4(Cc5nncn5C)COC4)cc3C2=O)c1` [Compound 15, (S)-2-(3-Isopropyl-5-((3-methylpiperidin-1-yl)methyl)phenyl)-6-(3-((4-methyl-4H-1,2,4-triazol-3-yl)methyl)oxetan-3-yl)isoindolin-1-one] are 300 to 1000 nM and 80 to 300 nM.
In the same order, the values of `C[C@@H](NC[C@@H]1CCCO1)c1cc(Cl)nc(N2Cc3ccc(C4(Cc5nncn5C)COC4)cc3C2=O)c1` (single isomer, unassigned) [Compound 219] are less than 300 nM and less than 80 nM.
Turning to `Cn1cnnc1CC1(c2ccc3c(c2)C(=O)N(c2cc(CNCCC(F)(F)F)cc(Cl)n2)C3)CCC1` [Compound 151, 2-(6-Chloro-4-(((3,3,3-trifluoropropyl)amino)methyl)pyridin-2-yl)-6-(1-((4-methyl-4H-1,2,4-triazol-3-yl)methyl)cyclobutyl)isoindolin-1-one], the EC50 in test [1] is less than 300 nM. Also, in test [2], the IC50 was less than 80 nM.
On the same counts, the results for `Cc1cc(CNCC2CCO2)cc(N2Cc3ccc(-c4ccc(F)cc4-c4nncn4C)cc3C2=O)n1` (centres unmarked) [Compound 325, 6-(4-Fluoro-2-(4-methyl-4H-1,2,4-triazol-3-yl)phenyl)-2-(6-methyl-4-(((oxetan-2-ylmethyl)amino)methyl)pyridin-2-yl)isoindolin-1-one] are 1000 to 10000 nM and less than 80 nM.
In the same order, the values of `Cn1cnnc1C[C@]1(c2ccc3c(c2)C(=O)N(c2cc(CNCC4CC4)cc(Cl)n2)C3)C[C@H](C#N)C1` (single isomer, unassigned) [Compound 233, (1r,3r)-3-(2-(6-Chloro-4-(((cyclopropylmethyl)amino)methyl)pyridin-2-yl)-3-oxoisoindolin-5-yl)-3-((4-methyl-4H-1,2,4-triazol-3-yl)methyl)cyclobutane-1-carbo-nitrile] are less than 300 nM and less than 80 nM.
With `CC1CCCCN1Cc1cc(N2Cc3ccc(C4(Cc5nncn5C)COC4)cc3C2=O)nc(C(F)(F)F)c1` (centres unmarked) [Compound 45, 6-(3-((4-Methyl-4H-1,2,4-triazol-3-yl)methyl)oxetan-3-yl)-2-(4-((2-methyl-piperidin-1-yl)methyl)-6-(trifluoromethyl)pyridin-2-yl)isoindolin-1-one], the EC50 in test [1] lay in the range of 1000 to 10000 nM. For the same compound, the IC50 in test [2] lay in the range of 300 to 5000 nM.
On the same counts, the results for `C=Cc1cc(CN2CCC[C@H](C)C2)cc(N2Cc3ccc(C4(Cc5nncn5C)COC4)cc3C2=O)c1` [Compound 9, (S)-6-(3-((4-Methyl-4H-1,2,4-triazol-3-yl)methyl)oxetan-3-yl)-2-(3-((3-methyl-piperidin-1-yl)methyl)-5-vinylphenyl)isoindolin-1-one] are 300 to 1000 nM and 80 to 300 nM.
In the same order, the values of `CC1CN(Cc2cc(Cl)nc(N3Cc4ccc(C5(Cc6nncn6C)COC5)cc4C3=O)c2)CC1F` (centres unmarked) [Compound 197] are 300 to 1000 nM and less than 80 nM.
In the same order, the values of `C[C@H]1CCCN(Cc2cc(Cl)nc(N3Cc4ccc(-c5ccc(Cl)cc5-c5nncn5C)cc4C3=O)c2)C1` [Compound 113, (S)-6-(4-Chloro-2-(4-methyl-4H-1,2,4-triazol-3-yl)phenyl)-2-(6-chloro-4-((3-methylpiperidin-1-yl)methyl)pyridin-2-yl)isoindolin-1-one] are less than 300 nM and less than 80 nM.
For `Cc1cc(CNCC2(O)CCCC2)cc(N2Cc3ccc(-c4ccc(F)cc4-c4nncn4C)cc3C2=O)n1` [Compound 319, 6-(4-Fluoro-2-(4-methyl-4H-1,2,4-triazol-3-yl)phenyl)-2-(4-((((1-hydroxy-cyclopentyl)methyl)amino)methyl)-6-methylpyridin-2-yl)isoindolin-1-one], the EC50 in test [1] is less than 300 nM. For the same compound, in test [2], the IC50 was less than 80 nM.
In the same order, the values of `C[C@H]1CCCN(Cc2cc(N3Cc4ccc(C5(Cc6nncn6C)COC5)cc4C3=O)cc3occc23)C1` [Compound 94, (S)-6-(3-((4-Methyl-4H-1,2,4-triazol-3-yl)methyl)oxetan-3-yl)-2-(4-((3-methyl-piperidin-1-yl)methyl)benzofuran-6-yl)isoindolin-1-one] are 300 to 1000 nM and less than 80 nM.
In the same order, the values of `Cc1cc(CNCCC(F)(F)F)cc(N2Cc3ccc(C4(Cc5nncn5C)COC4)cc3C2=O)c1` [Compound 19, 6-(3-((4-Methyl-4H-1,2,4-triazol-3-yl)methyl)oxetan-3-yl)-2-(3-methyl-5-(((3,3,3-trifluoropropyl)amino)methyl)phenyl)isoindolin-1-one] are 300 to 1000 nM and less than 80 nM.
On the same counts, the results for `Cn1cnnc1CC1(c2ccc3c(c2)C(=O)N(c2cc(CN4CCCCC4)cc(Cl)n2)C3)COC1` [Compound 64, 2-(6-Chloro-4-(piperidin-1-ylmethyl)pyridin-2-yl)-6-(3-((4-methyl-4H-1,2,4-triazol-3-yl)methyl)oxetan-3-yl)isoindolin-1-one] are less than 300 nM and less than 80 nM.
As for `Cn1cnnc1CC1(c2ccc3c(c2)C(=O)N(c2cc(CN4CCCC(C#N)C4)cc(C(F)(F)F)n2)C3)COC1` (centres unmarked) [Compound 29, 1-((2-(6-(3-((4-Methyl-4H-1,2,4-triazol-3-yl)methyl)oxetan-3-yl)-1-oxoisoindo-lin-2-yl)-6-(trifluoromethyl)pyridin-4-yl)methyl)piperidine-3-carbonitrile], the EC50 in test [1] fell in the range of 1000 to 10000 nM. Also, the half-maximal inhibitory concentration (IC50) in test [2] is 80 to 300 nM.
As to `CC(NCc1cscn1)c1cc(Cl)nc(N2Cc3ccc(C4(Cc5nncn5C)COC4)cc3C2=O)c1` (centres unmarked) [Compound 205], in test [1], the EC50 is less than 300 nM. In addition, the IC50 in test [2] is less than 80 nM.
As to `Cn1cnnc1CC1(c2ccc3c(c2)C(=O)N(c2cc(CNCC4(C)CCC4)cc(Cl)n2)C3)COC1` [Compound 172, 2-(6-Chloro-4-((((1-methylcyclobutyl)methyl)amino)methyl)pyridin-2-yl)-6-(3-((4-methyl-4H-1,2,4-triazol-3-yl)methyl)oxetan-3-yl)isoindolin-1-one], in test [1], the EC50 is 300 to 1000 nM. Also, in test [2], the IC50 is less than 80 nM.
As for `Cc1cc(CNCC2CC2(F)F)cc(N2Cc3ccc(-c4ccc(Cl)cc4-c4nncn4C)cc3C2=O)n1` (centres unmarked) [Compound 269], in test [1], the EC50 lay in the range of 300 to 1000 nM. Further, in test [2], the IC50 is less than 80 nM.
Turning to `C[C@H]1CCCN(Cc2cc(Cl)nc(N3Cc4ccc([C@]5(c6nncn6C)C[C@@H](C)C5)cc4C3=O)c2)C1` [Compound 58, 2-(6-Chloro-4-(((S)-3-methylpiperidin-1-yl)methyl)pyridin-2-yl)-6-((1s,3R)-3-methyl-1-(4-methyl-4H-1,2,4-triazol-3-yl)cyclobutyl)isoindolin-1-one], in test [1], the EC50 was 1000 to 10000 nM. Also, the IC50 in test [2] lay within 300 to 5000 nM.
In the same order, the values of `COc1cc(CN2CCC[C@H](C)C2)cc(N2Cc3ccc(C4(Cc5nncn5C)COC4)cc3C2=O)c1` [Compound 5, (S)-2-(3-Methoxy-5-((3-methylpiperidin-1-yl)methyl)phenyl)-6-(3-((4-methyl-4H-1,2,4-triazol-3-yl)methyl)oxetan-3-yl)isoindolin-1-one] are 1000 to 10000 nM and 80 to 300 nM.
In the same order, the values of `C[C@H]1C[C@H](C)CN(Cc2cc(N3Cc4ccc(C5(Cc6nncn6C)COC5)cc4C3=O)nc(C(F)(F)F)c2)C1` [Compound 42, 2-(4-(((3S,5S)-3,5-Dimethylpiperidin-1-yl)methyl)-6-(trifluoromethyl)pyridin-2-yl)-6-(3-((4-methyl-4H-1,2,4-triazol-3-yl)methyl)oxetan-3-yl)isoindolin-1-one] are 300 to 1000 nM and less than 80 nM.
In the same order, the values of `C[C@H](Cc1nncn1C)c1ccc2c(c1)C(=O)N(c1cc(CNCC3CCC3)cc(Cl)n1)C2` (single isomer, unassigned) [Compound 170] are less than 300 nM and less than 80 nM.
Consider `Cn1cnnc1-c1cc(Cl)ccc1-c1ccc2c(c1)C(=O)N(c1cc(CNC[C@H]3CCCO3)cc(Cl)n1)C2` (single isomer, unassigned) [Compound 124, 6-(4-Chloro-2-(4-methyl-4H-1,2,4-triazol-3-yl)phenyl)-2-(6-chloro-4-((((tetra-hydrofuran-2-yl)methyl)amino)methyl)pyridin-2-yl)isoindolin-1-one], for which the EC50 in test [1] is less than 300 nM. Moreover, in test [2], the IC50 is less than 80 nM.
On to `Cc1cc(CNCC2CC2)cc(N2Cc3ccc(C4(Cc5nncn5C)COC4)cc3C2=O)c1` [Compound 18, 2-(3-(((Cyclopropylmethyl)amino)methyl)-5-methylphenyl)-6-(3-((4-methyl-4H-1,2,4-triazol-3-yl)methyl)oxetan-3-yl)isoindolin-1-one], for which the EC50 in test [1] lay within 1000 to 10000 nM. For the same compound, in test [2], the IC50 is less than 80 nM.

What is called EC50 is the concentration at which the effect is half-maximal. As a reminder, the IC50 is the concentration that inhibits the measured activity by half.
